Assay results published in PubChem BioAssay AID2060889 (Molecular Pharmacology Branch, DTP, NCI, 2025).

System: LG0567-F671-PDC complex spheroids viability
Experiment: Anticancer human tumor LG0567-F671-PDC patient-derived lung adenocarcinoma cell line growth inhibition [RAS]
Conditions: for IC50: curve of first compound; for viability, T/C: stronger effect = lower value
From the text: RAS pathway inhibitors in Combinations in Complex Spheroids
A high-throughput screen of multi-cell type tumor spheroids was designed to identify active combinations of RAS pathway inhibitors and targeted small molecules. Complex spheroids include a stromal component modeled by human endothelial cells (HUVEC) and fibroblasts modeled by human mesenchymal stem cells (MSCs). The concentration ranges selected for each drug and investigational agent were based upon clinically achievable concentrations if the clinical Cmax of the agent was known.
Compounds. The drugs and investigational agents: abemaciclib (NSC768073), cobimetinib (NSC768068), divarasib (GDC6063, NSC841802), docetaxel (NSC628503), GDC-1971 (RLY-1971, NSC841576), gemcitabine (NSC613327), inavolisib (NSC800729), ipatasertib (NSC767898), KB-0742 (NSC834161), MRTX-1133 (NSC836407), osimertinib (NSC779217), RMC-4630 (NSC839698), RMC-6236 (NSC851965), RMC-6291 (NSC852671), Ro-3306 (NSC812927), sapanisertib (NSC764658), SN-38 (NSC673596), staurosporine (NSC755774), SY5609 (NSC837396), and tovorafenib (DAY101, NSC766906), were obtained from the National Cancer Institute (NCI) Developmental Therapeutics Program Chemical Repository. The FDA-approved anticancer drug set is available from the NCI Developmental Therapeutics Program. […] The stock solutions were prepared in dimethyl sulfoxide (DMSO, Sigma-Aldrich, St. Louis, MO, cat. D2650) at 800-fold the tested concentration and stored at -70 degrees C prior to their use. All drugs and investigational agents were tested over a range starting from a high concentration at or near the clinical Cmax and decreasing in half-log increments. If the clinical Cmax for an agent had not been determined, the highest concentration tested was 10 microM.
Cell Culture. All cells were maintained in an incubator at 37 degrees C and 5% CO2 with 95% humidity. The PDC lines were cultured according to standard operating procedures established by the NCI PDMR. All PDCs were thawed and cultured in Matrigel-coated flasks prepared with a working solution of 1X Ham's F-12 nutrient mix, without supplementation (Invitrogen, Waltham, MA, cat. 11765054), 100 U/mL penicillin-streptomycin (Invitrogen, cat. 15140122), and 2.5% Matrigel (Corning Inc., Corning, NY, cat. 354248) for the first three passages. The 362531-283-R-J2-PDC and 782815-120-R-J1-PDC lines were cultured in 6C/Colon 1B media, which includes advanced DMEM/F-12 (Thermo Fisher Scientific, cat. 12634028), 10 mM HEPES (Thermo Fisher Scientific, cat. 15630080), 1X GlutaMAX supplement (Thermo Fisher Scientific, cat. 35050061), 0.1 mg/mL primocin (InvivoGen, San Diego, CA, cat. ant-pm-2), 10% defined fetal bovine serum, heat inactivated (HyClone Laboratories Inc., Logan, UT, cat. SH30070.03HI), 50% L-WRN conditioned media (ATCC, cat. CRL-3276), 1.25 mM N-Acetyl-L-cysteine (Sigma-Aldrich, cat. A9165), 10 mM nicotinamide (Sigma-Aldrich, cat. N0636), 1X B-27 supplement (Thermo Fisher Scientific, cat. 17504044), 1X N-2 supplement (Thermo Fisher Scientific, cat. 17502048), 50 ng/mL human EGF (Thermo Fisher Scientific, cat. PHG0311), and 10 microM Y-27632 dihydrochloride (Tocris Bioscience, cat. 1254). The K12877-001-R-J1-PDC line was cultured in 6I media, which includes all 6C/Colon 1B media plus 10 ng/mL human FGF-10 (PeproTech, cat. 100-26), 1 ng/mL human FGF-2 (PeproTech, cat. 100-18B), 1 µM prostaglandin E2 (Tocris Bioscience, cat. 2296), […] hydrocortisone (Sigma-Aldrich, cat. H4001), and […] bovine insulin (Sigma-Aldrich, cat. I6634). The K86415-001-R-J1-PDC line was cultured in 6D media, which includes all 6C/Colon 1B media components minus the L-WRN conditioned media. The 485176-168-R4-J1-PDC was cultured in PANC media, which includes all 6C/Colon 1B media plus 100 ng/mL human FGF-10 (PeproTech, cat. 100-26), 500 nM SB-431542 (Selleckchem, cat. S1067), and 10 nM gastrin (Tocris Bioscience, cat. 3006). […]
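Note: spheroids exposed to compound for seven days before readout.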
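Throughout, for IC50: luminescence signal used as a proxy for viable cells.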

How did the IC50 (second compound 0.00316 µM) turn out when `CCC(CC)c1cc(NC2CCC(N)C2)n2nccc2n1` (configuration not stated) + C=CC(=O)N1CCN(c2nc(OCC3CCCN3C)nc3c(F)c(-c4nc(N)cc(C)c4C(F)(F)F)c(Cl)cc23)C(C)C1 was run?
The IC50 was under 31.6 nM.

And the IC50 (second compound 0.01 µM)?
Its IC50 is under 31.6 nM.

What about the IC50 (second compound 0.0316 µM) of the same molecule?
The IC50 was under 31.6 nM.

What about the IC50 (second compound 0.1 µM) of the same molecule?
Its IC50 is under 31.6 nM.

What about the IC50 (second compound 0.316 µM) of the same molecule?
The IC50 was under 31.6 nM.

What about the IC50 (second compound 1 µM) of the same molecule?
The IC50 was under 31.6 nM.

And the viability, T/C (second compound 0.00316 µM, first compound 0.0316 µM)?
The viability, T/C was 18.7%.

What about the viability, T/C (second compound 0.00316 µM, first compound 0.1 µM) of the same molecule?
Its viability, T/C is 16.5%.

What about the viability, T/C (second compound 0.00316 µM, first compound 0.316 µM) of the same molecule?
The viability, T/C was 17.8%.

And the viability, T/C (second compound 0.00316 µM, first compound 1 µM)?
Its viability, T/C is 15.8%.

And the viability, T/C (second compound 0.00316 µM, first compound 3.16 µM)?
The viability, T/C was 3.58%.

And the viability, T/C (second compound 0.00316 µM, first compound 10 µM)?
The viability, T/C was 0.33%.

And the viability, T/C (second compound 0.01 µM, first compound 0.0316 µM)?
The viability, T/C was 12.8%.

And the viability, T/C (second compound 0.01 µM, first compound 0.1 µM)?
Its viability, T/C is 13.4%.

And the viability, T/C (second compound 0.01 µM, first compound 0.316 µM)?
The viability, T/C was 15.6%.

What about the viability, T/C (second compound 0.01 µM, first compound 1 µM) of the same molecule?
The viability, T/C was 12.7%.

And the viability, T/C (second compound 0.01 µM, first compound 3.16 µM)?
The viability, T/C was 3.96%.

And the viability, T/C (second compound 0.01 µM, first compound 10 µM)?
The viability, T/C was 0.45%.

And the viability, T/C (second compound 0.0316 µM, first compound 0.0316 µM)?
The viability, T/C was 11.5%.

And the viability, T/C (second compound 0.0316 µM, first compound 0.1 µM)?
The viability, T/C was 11.6%.

What about the viability, T/C (second compound 0.0316 µM, first compound 0.316 µM) of the same molecule?
Its viability, T/C is 12.2%.

What about the viability, T/C (second compound 0.0316 µM, first compound 1 µM) of the same molecule?
The viability, T/C was 11.2%.

What about the viability, T/C (second compound 0.0316 µM, first compound 3.16 µM) of the same molecule?
Its viability, T/C is 3.67%.

And the viability, T/C (second compound 0.0316 µM, first compound 10 µM)?
Its viability, T/C is 0.43%.

And the viability, T/C (second compound 0.1 µM, first compound 0.0316 µM)?
Its viability, T/C is 11.6%.

And the viability, T/C (second compound 0.1 µM, first compound 0.1 µM)?
The viability, T/C was 16.4%.

And the viability, T/C (second compound 0.1 µM, first compound 0.316 µM)?
Its viability, T/C is 12.2%.

What about the viability, T/C (second compound 0.1 µM, first compound 1 µM) of the same molecule?
Its viability, T/C is 10.4%.

And the viability, T/C (second compound 0.1 µM, first compound 3.16 µM)?
Its viability, T/C is 3.67%.

And the viability, T/C (second compound 0.1 µM, first compound 10 µM)?
Its viability, T/C is 0.68%.

What about the viability, T/C (second compound 0.316 µM, first compound 0.0316 µM) of the same molecule?
Its viability, T/C is 11.4%.

What about the viability, T/C (second compound 0.316 µM, first compound 0.1 µM) of the same molecule?
The viability, T/C was 11.2%.

What about the viability, T/C (second compound 0.316 µM, first compound 0.316 µM) of the same molecule?
Its viability, T/C is 12.8%.

What about the viability, T/C (second compound 0.316 µM, first compound 1 µM) of the same molecule?
The viability, T/C was 11.4%.

What about the viability, T/C (second compound 0.316 µM, first compound 3.16 µM) of the same molecule?
The viability, T/C was 4.66%.

And the viability, T/C (second compound 0.316 µM, first compound 10 µM)?
The viability, T/C was 0.75%.

And the viability, T/C (second compound 1 µM, first compound 0.0316 µM)?
The viability, T/C was 14.2%.

What about the viability, T/C (second compound 1 µM, first compound 0.1 µM) of the same molecule?
The viability, T/C was 14.3%.

And the viability, T/C (second compound 1 µM, first compound 0.316 µM)?
Its viability, T/C is 14.3%.

What about the viability, T/C (second compound 1 µM, first compound 1 µM) of the same molecule?
The viability, T/C was 12.2%.

What about the viability, T/C (second compound 1 µM, first compound 3.16 µM) of the same molecule?
The viability, T/C was 4.35%.

And the viability, T/C (second compound 1 µM, first compound 10 µM)?
Its viability, T/C is 0.62%.
